Measurements taken from PubChem BioAssay AID330 (DTP/NCI, 2004).
Where “and” joins values, the source holds several entries; their conditions need not be identical. Equal values may be shown once. Toxic doses and inconclusive results are not listed. Rule for the calls: active = survival T/C of 150% or more; inactive = T/C below 125% in these data.

Tested on: P388 leukemia ip, CD2F1 mice, survival T/C
Experiment: NCI In Vivo Anticancer Drug Screen. Data for tumor model P388 Leukemia (intraperitoneal) in CD2F1 (CDF1) mice
Settings: endpoint: median survival time, higher = longer survival
Outline: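 Mice carrying the transplanted tumor received test compound or vehicle. Survival was recorded in each group, and the value is the treated-group measurement divided by that of the vehicle-treated control group.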

[1] = dose: 60.0 mg/kg/injection, schedule: Q01DX005 (ip), vehicle: saline with Tween-80
[2] = dose: 120.0 mg/kg/injection, schedule: Q01DX005 (ip), vehicle: saline with Tween-80
[3] = dose: 60.0 mg/kg/injection, schedule: Q01DX005 (ip), vehicle: saline
[4] = dose: 50.0 mg/kg/injection, schedule: Q01DX009 (ip), vehicle: saline
[5] = dose: 100.0 mg/kg/injection, schedule: Q01DX009 (ip), vehicle: saline
[6] = dose: 50.0 mg/kg/injection, schedule: Q01DX005 (ip), vehicle: Klucel (hydroxypropylcellulose) (HPC)
[7] = dose: 100.0 mg/kg/injection, schedule: Q01DX005 (ip), vehicle: Klucel (hydroxypropylcellulose) (HPC)
[8] = dose: 200.0 mg/kg/injection, schedule: Q01DX005 (ip), vehicle: Klucel (hydroxypropylcellulose) (HPC)
[9] = dose: 25.0 mg/kg/injection, schedule: Q01DX009 (ip), vehicle: saline
[10] = dose: 200.0 mg/kg/injection, schedule: Q01DX009 (ip), vehicle: saline

Measured: T/C

CC(C)=CO[Si](C)(C)C
inactive: dose: 50.0 mg/kg/injection, schedule: Q01DX009 (ip), vehicle: olive oil, sesame oil, peanut oil 99 % of control | dose: 100.0 mg/kg/injection, schedule: Q01DX009 (ip), vehicle: olive oil, sesame oil, peanut oil 99 % of control | dose: 200.0 mg/kg/injection, schedule: Q01DX009 (ip), vehicle: olive oil, sesame oil, peanut oil 114 % of control

CN1CC2(CO)C(c3ccccn3)N(C)C(c3ccccn3)C(CO)(C1)C2O (configuration not stated)
inactive: [1] 107 % of control | [2] 104 % of control

N=[N+]=NC1C(O)C(CO)OC1n1cnc2c(N)ncnc21 (configuration not stated)
active: dose: 80.0 mg/kg/injection, schedule: Q03HX016 (ip), vehicle: Klucel (hydroxypropylcellulose) (HPC) 153 % of control
inactive: dose: 5.0 mg/kg/injection, schedule: Q03HX016 (ip), vehicle: Klucel (hydroxypropylcellulose) (HPC) 118 % of control | dose: 10.0 mg/kg/injection, schedule: Q03HX016 (ip), vehicle: Klucel (hydroxypropylcellulose) (HPC) 110 % of control | dose: 160.0 mg/kg/injection, schedule: Q03HX016 (ip), vehicle: Klucel (hydroxypropylcellulose) (HPC) 64 % of control

Cc1c2ccccc2cc2c1ccc1ccccc12
active: dose: 70.0 mg/kg/injection, schedule: Q01DX009 (ip), vehicle: saline with Tween-80 152 % of control
inactive: dose: 17.5 mg/kg/injection, schedule: Q01DX009 (ip), vehicle: saline with Tween-80 116 % of control | dose: 25.0 mg/kg/injection, schedule: Q04DX003 (ip), vehicle: other 100 % of control | dose: 35.0 mg/kg/injection, schedule: Q01DX009 (ip), vehicle: saline with Tween-80 122 % of control | dose: 50.0 mg/kg/injection, schedule: Q04DX003 (ip), vehicle: other 100 % of control | dose: 100.0 mg/kg/injection, schedule: Q04DX003 (ip), vehicle: other 102 % of control | dose: 200.0 mg/kg/injection, schedule: Q04DX003 (ip), vehicle: other 102 % of control | dose: 400.0 mg/kg/injection, schedule: Q04DX003 (ip), vehicle: other 107 % of control

CC1=CC(=O)C(O)C2(C)C(CCC3(C)OCCO3)C=C(O[Si](C)(C)C(C)(C)C)CC12 (configuration not stated)
inactive: [1] 96 % of control | [2] 96 % of control | dose: 240.0 mg/kg/injection, schedule: Q01DX005 (ip), vehicle: saline with Tween-80 100 % of control

CC(CN(C)C)C(=O)/C=C/c1ccc(F)cc1 (configuration not stated)
inactive: dose: 30.0 mg/kg/injection, schedule: Q01DX005 (ip), vehicle: saline 100 % of control | [3] 101 % of control and 110 % of control

Cc1cc(Br)ccc1N=c1scc(-c2ccc(Cl)cc2)n1C
inactive: dose: 50.0 mg/kg/injection, schedule: Q01DX009 (ip), vehicle: Klucel (hydroxypropylcellulose) (HPC) 95 % of control | dose: 100.0 mg/kg/injection, schedule: Q01DX009 (ip), vehicle: Klucel (hydroxypropylcellulose) (HPC) 93 % of control | dose: 200.0 mg/kg/injection, schedule: Q01DX009 (ip), vehicle: Klucel (hydroxypropylcellulose) (HPC) 91 % of control

N=C(N)c1cccc([N+](=O)[O-])c1
inactive: [4] 98 % of control | [5] 96 % of control

C/C(=N\N/C=N/S(=O)(=O)c1ccccc1)c1ccccc1
inactive: [6] 88 % of control | [7] 89 % of control | [8] 89 % of control

Nc1ncnc2c1ncn2C1OC(CO)CC1O (configuration not stated)
inactive: dose: 9.37 mg/kg/injection, schedule: Q01DX009 (ip), vehicle: Klucel (hydroxypropylcellulose) (HPC) 109 % of control | dose: 18.75 mg/kg/injection, schedule: Q01DX009 (ip), vehicle: Klucel (hydroxypropylcellulose) (HPC) 104 % of control | dose: 37.5 mg/kg/injection, schedule: Q01DX009 (ip), vehicle: Klucel (hydroxypropylcellulose) (HPC) 110 % of control | dose: 75.0 mg/kg/injection, schedule: Q01DX009 (ip), vehicle: Klucel (hydroxypropylcellulose) (HPC) 112 % of control

O=C(O)/C=N/NP(=O)(Oc1ccccc1)Oc1ccccc1
inactive: dose: 25.0 mg/kg/injection, schedule: Q01DX009 (ip), vehicle: distilled water + Tween-80 99 % of control | dose: 50.0 mg/kg/injection, schedule: Q01DX009 (ip), vehicle: distilled water + Tween-80 100 % of control and 94 % of control | dose: 100.0 mg/kg/injection, schedule: Q01DX009 (ip), vehicle: distilled water + Tween-80 100 % of control and 95 % of control | dose: 200.0 mg/kg/injection, schedule: Q01DX009 (ip), vehicle: distilled water + Tween-80 100 % of control and 97 % of control | dose: 400.0 mg/kg/injection, schedule: Q01DX009 (ip), vehicle: distilled water + Tween-80 100 % of control and 109 % of control

CCCOCn1cc(F)c(=O)n(COCCC)c1=O
inactive: dose: 5.62 mg/kg/injection, schedule: Q04DX002 (ip), vehicle: water 95 % of control | dose: 11.25 mg/kg/injection, schedule: Q04DX002 (ip), vehicle: water 93 % of control | dose: 22.5 mg/kg/injection, schedule: Q04DX002 (ip), vehicle: water 92 % of control | dose: 45.0 mg/kg/injection, schedule: Q04DX002 (ip), vehicle: water 92 % of control | dose: 90.0 mg/kg/injection, schedule: Q04DX002 (ip), vehicle: water 91 % of control | dose: 180.0 mg/kg/injection, schedule: Q04DX002 (ip), vehicle: water 95 % of control

O=S(=O)(O)C(O)C(F)(F)C(F)(F)C(F)(F)C(F)(F)C(O)S(=O)(=O)O (configuration not stated)
inactive: [3] 103 % of control | dose: 120.0 mg/kg/injection, schedule: Q01DX005 (ip), vehicle: saline 103 % of control | dose: 240.0 mg/kg/injection, schedule: Q01DX005 (ip), vehicle: saline 103 % of control

N#CC(C#N)=C1Cc2ccccc2C1
inactive: dose: 25.0 mg/kg/injection, schedule: Q01DX001 (ip), vehicle: saline with Tween-80 109 % of control | dose: 50.0 mg/kg/injection, schedule: Q01DX001 (ip), vehicle: saline with Tween-80 100 % of control

O=CCSC(=S)NNc1ccccc1
inactive: [9] 103 % of control | [4] 90 % of control | [5] 105 % of control | [10] 96 % of control

CN(C)CC(CN1CCCC1)C(=O)c1ccccc1 (configuration not stated)
inactive: dose: 3.12 mg/kg/injection, schedule: Q01DX009 (ip), vehicle: saline 96 % of control | dose: 3.13 mg/kg/injection, schedule: Q01DX009 (ip), vehicle: saline 96 % of control | dose: 6.25 mg/kg/injection, schedule: Q01DX009 (ip), vehicle: saline 99 % of control and 116 % of control (2×) | dose: 12.5 mg/kg/injection, schedule: Q01DX009 (ip), vehicle: saline 114 % of control | [9] 112 % of control and 121 % of control and 122 % of control | [4] 102 % of control

O=C1c2cccc(O)c2C(=O)c2c(OC3OC(CO)C(O)C(O)C3O)cccc21 (configuration not stated)
inactive: [4] 94 % of control | [5] 93 % of control | [10] 88 % of control

CN(C)C1C(=O)C(C(=O)NP(=O)(NCCCO)N(CCCl)CCCl)=C(O)C2(O)C(=O)C3=C(O)c4c(O)cccc4C(C)(O)C3CC12 (configuration not stated)
inactive: dose: 0.25 mg/kg/injection, schedule: Q01DX005 (ip), vehicle: saline 92 % of control | dose: 0.5 mg/kg/injection, schedule: Q01DX005 (ip), vehicle: saline 102 % of control | dose: 1.0 mg/kg/injection, schedule: Q01DX005 (ip), vehicle: saline 104 % of control | dose: 2.0 mg/kg/injection, schedule: Q01DX005 (ip), vehicle: saline 100 % of control | dose: 3.13 mg/kg/injection, schedule: Q04DX003 (ip), vehicle: saline 98 % of control | dose: 4.0 mg/kg/injection, schedule: Q01DX005 (ip), vehicle: saline 101 % of control | dose: 6.25 mg/kg/injection, schedule: Q04DX003 (ip), vehicle: saline 102 % of control | dose: 8.0 mg/kg/injection, schedule: Q01DX005 (ip), vehicle: saline 101 % of control | dose: 12.5 mg/kg/injection, schedule: Q04DX003 (ip), vehicle: saline 103 % of control | dose: 25.0 mg/kg/injection, schedule: Q04DX003 (ip), vehicle: saline 107 % of control | dose: 50.0 mg/kg/injection, schedule: Q04DX003 (ip), vehicle: saline 108 % of control

COc1ccc(C(C2C(=O)CC(C)(C)CC2=O)C2C(=O)CC(C)(C)CC2=O)cc1
inactive: [6] 104 % of control | [7] 101 % of control | [8] 106 % of control

C(#Cc1ccncc1)c1ccncc1
inactive: dose: 50.0 mg/kg/injection, schedule: Q01DX005 (ip), vehicle: saline with Tween-80 100 % of control | dose: 100.0 mg/kg/injection, schedule: Q01DX005 (ip), vehicle: saline with Tween-80 98 % of control

Nc1nc(N)nc(NCCSSCCNc2nc(N)nc(N)n2)n1
inactive: dose: 12.5 mg/kg/injection, schedule: Q01DX009 (ip), vehicle: other 97 % of control | dose: 25.0 mg/kg/injection, schedule: Q01DX009 (ip), vehicle: other 102 % of control | dose: 50.0 mg/kg/injection, schedule: Q01DX009 (ip), vehicle: other 104 % of control and 86 % of control
